The record followed here is US20240376154A1, “BIS-INTERCALATING PEPTIDES, CONJUGATES AND METHODS OF USE” (ZYMEWORKS BC INC., priority 2023, published 2024).

Data set [1] concerns tumour cells (at least 4 of a panel of ovarian, breast, lung, pancreatic, placenta, colon cell lines). Kind of data set: In vitro cytotoxicity (cell proliferation, CellTiter-Glo), average over tumour cell line panel. The conditions noted are these: average pIC50 on all cell lines tested; 5 nights incubation; CellTiter-Glo. The format is cell-based. The method, then:
The ability of representative compounds of Formula I to inhibit proliferation of tumour cells in vitro was evaluated in at least 4 of the following cell lines: OVCAR-3 (ovarian, ATCC), SKOV-3 (ovarian, ATCC), IGROV-1 (ovarian, national research council of Canada (NRC)), OV-90 (ovarian, ATCC), OVKATE (Ovarian, Japanese Collection of Research Bioresources (JCRB) (JCRB1044)), JIMT-1 (breast, NRC), SK-BR-3 (breast, ATCC), T-47D (breast, ATCC), ZR-75-1 (breast, ATCC), MDA-MB-468 (breast, AddexBio), BT-20 (breast, ATCC), BT-474 (breast, NRC), MDA-MB-175 (breast, AddexBio), A549 (lung, collaborator), NCI-H226 (lung, NRC), NCI-H661 (lung, NRC), NCI-H1573 (lung, ATCC). NCI-H1563 (lung, ATCC), H358 (lung, collaborator), EBC-1 (lung, Xenotech), H1299 (lung, NRC), NCI-H292 (lung, ATCC), HCC817 (lung, ATCC), NCI-H441 (lung, ATCC), MIA-PaCa-2 (pancreatic, ATCC), BxPC-3 (pancreatic, ATCC), Panc-1 (pancreatic, ATCC), AsPC-1 (pancreatic, ATCC), JEG-3 (placenta, AddexBio), HT-29 (colon, ATCC).
Cells were cultured per vendor instructions and in log-phase growth were detached by brief incubation in 0.05% trypsin, then resuspended in respective culturing media at 20,000 cells/mL (except for ZR-75 cells, which were resuspended at 10,000 cells/mL). 50 μL/well (˜1000 cells/well) were transferred to sterile tissue culture (TC)-treated 384-well plates (ThermoFisher Scientific, Catalogue #164610) and incubated overnight at 37° C. with 5% CO2 to allow the cells to adhere to the plate surface. The next day, in a sterile, V-bottom, 96-well plate, test articles were titrated 1:3 in complete growth medium, creating a 10-point dose response titration with compounds at 3.5-times the desired final concentration. 20 μL from each dilution were added to the 384-well plate containing the seeded cells and these plates were incubated at 37° C. with 5% CO2 for 5 nights. Cell viability was quantified by first incubating with 15 μL/well of CellTiter-Glo® (Promega, Catalogue #G7572) for 30 minutes, then measuring luminescence with a microplate luminometer (BioTek® Synergy™ H1 Microplate Reader). IC50 values were determined by GraphPad Prism (GraphPad Software, San Diego, CA).
The results are presented in Table 7.1 and discussed in Example 7. Table 7.1 presents the results as average pIC50 values. pIC50=−log (IC50), thus, for example, pIC50=9 is equivalent to IC50=1 nM, and pIC50=6 is equivalent to IC50=1 μM.

Data set [2] is described as follows: Lipophilicity by experimental HPLC retention time. Conditions: HPLC retention time as measure of lipophilicity; C18, 10 to 90% CH3CN/H2O with 0.1% FA over 25 min. The class given is physicochemical. The method, then:
The ability to kill neighboring cells (i.e. bystander effect) is an important property for ADC payloads. For a payload comprising a compound of Formula I to be capable of bystander killing, membrane permeability (or transport) is required and the ability of compounds of Formula I to cross cell membranes and exert a cytotoxic effect was expected to be heavily influenced by lipophilicity.
Compounds were analyzed using an Agilent 1260 HPLC (Agilent Technologies, Inc., Santa Clara, CA) equipped with a Diode array detector and using a Phenomenex Kinetex EVO C18 150×4.6, 2.6 μm column (Phenomenex, Torrance, CA), eluting with 10 to 90% CH3CN/H2O with 0.1% FA over 25 min.

Turning to `CC(C)[C@H]1C(=O)NC[C@@H](NC(=O)c2nc3ccccc3cc2O)C(=O)N2CCCC[C@H]2C(=O)NCC(=O)N(C)CC(=O)N(C)[C@@H](c2ccccc2)C(=O)NC[C@@H](NC(=O)c2nc3ccccc3cc2O)C(=O)N2CCCC[C@H]2C(=O)NCC(=O)N(C)CC(=O)N1C` [Compound 103, N,N′-((7R,11S,19aS,26R,30S,38aS)-11-isopropyl-12,15,31,34-tetramethyl-6,10,13,16,19,25,29,32,35,38-decaoxo-30-phenylhexatriacontahydro-2H,6H-dipyrido[1,2-a:1′,2′-q][1,4,7,10,13,17,20,23,26,29]decaazacyclodotriacontine-7,26-diyl)bis(3-hydroxyquinoline-2-carboxamide)], the “pIC50 (average)” value in data set [1] came to 7.3. For the same molecule, the “HPLC” value in data set [2] is given as 17.2 min.
The matching figures for `CC(C)[C@H]1C(=O)NC[C@@H](NC(=O)c2nc3ccccc3cc2O)C(=O)N2CCCC[C@H]2C(=O)NCC(=O)N(C)CC(=O)N(C)C2(CC2)C(=O)NC[C@@H](NC(=O)c2nc3ccccc3cc2O)C(=O)N2CCCC[C@H]2C(=O)NCC(=O)N(C)CC(=O)N1C` [Compound 109, N,N′-((7′R,19a'S,26′R,30'S,38a'S)-30′-isopropyl-12′,15′,31′,34′-tetramethyl-6′,10′,13′,16′,19′,25′,29′,32′,35′,38′-decaoxotetratriacontahydro-2′H,6′H,12′H-spiro[cyclopropane-1,11′-dipyrido[1,2-a:1′,2′-q][1,4,7,10,13,17,20,23,26,29]decaazacyclodotriacontine]-7′,26′-diyl)bis(3-hydroxyquinoline-2-carboxamide)]: 7.77 and 15.4 min.
`CC(C)[C@H]1C(=O)NC[C@@H](NC(=O)c2nc3ccccc3cc2O)C(=O)N2CCCC[C@H]2C(=O)NCC(=O)N(C)CC(=O)N(C)C(C)(C)C(=O)NC[C@@H](NC(=O)c2nc3ccccc3cc2O)C(=O)N2CCCC[C@H]2C(=O)NCC(=O)N(C)CC(=O)N1C` [Compound 115, N,N′-((7R,19aS,26R,30S,38aS)-30-isopropyl-11,11,12,15,31,34-hexamethyl-6,10,13,16,19,25,29,32,35,38-decaoxohexatriacontahydro-2H,6H-dipyrido[1,2-a:1′,2′-q][1,4,7,10,13,17,20,23,26,29]decaazacyclodotriacontine-7,26-diyl)bis(3-hydroxyquinoline-2-carboxamide)]: the “pIC50 (average)” value in data set [1] is reported as “Inactive”. The “HPLC” value in data set [2] is 15.8 min.
In the case of `CC(C)[C@H]1C(=O)NC[C@@H](NC(=O)c2nc3ccccc3cc2O)C(=O)N2CCCC[C@H]2C(=O)NCC(=O)N(C)CC(=O)N(C)C2(CCC2)C(=O)NC[C@@H](NC(=O)c2nc3ccccc3cc2O)C(=O)N2CCCC[C@H]2C(=O)NCC(=O)N(C)CC(=O)N1C` [Compound 121, N,N′-((7′R,19a'S,26′R,30'S,38a'S)-30′-isopropyl-12′,15′,31′,34′-tetramethyl-6′,10′,13′,16′,19′,25′,29′,32′,35′,38′-decaoxotetratriacontahydro-2′H,6′H,12′H-spiro[cyclobutane-1,11′-dipyrido[1,2-a:1′,2′-q][1,4,7,10,13,17,20,23,26,29]decaazacyclodotriacontine]-7′,26′-diyl)bis(3-hydroxyquinoline-2-carboxamide)], the “pIC50 (average)” value in data set [1] was 8.18. Further, the “HPLC” value in data set [2] was determined as 17.0 min.
For `CC[C@H](C)[C@H]1C(=O)NC[C@@H](NC(=O)c2nc3ccc(Br)cc3cc2O)C(=O)N2CCCC[C@H]2C(=O)NCC(=O)N(C)CC(=O)N(C)[C@@H]([C@@H](C)CC)C(=O)NC[C@@H](NC(=O)c2nc3ccc(Br)cc3cc2O)C(=O)N2CCCC[C@H]2C(=O)NCC(=O)N(C)CC(=O)N1C` [Compound 127, N,N′-((7R,11S,19aS,26R,30S,38aS)-11,30-di((S)-sec-butyl)-12,15,31,34-tetramethyl-6,10,13,16,19,25,29,32,35,38-decaoxohexatriacontahydro-2H,6H-dipyrido[1,2-a:1′,2′-q][1,4,7,10,13,17,20,23,26,29]decaazacyclodotriacontine-7,26-diyl)bis(6-bromo-3-hydroxyquinoline-2-carboxamide)], in data set [1], the “pIC50 (average)” value came out at 8.7. For the same molecule, the “HPLC” value in data set [2] is reported as 21.0 min.
`CCN1C(=O)CN(C)C(=O)CNC(=O)[C@@H]2CCCCN2C(=O)[C@H](NC(=O)c2nc3ccccc3cc2O)CNC(=O)[C@H](C(C)C)N(CC)C(=O)CN(C)C(=O)CNC(=O)[C@@H]2CCCCN2C(=O)[C@H](NC(=O)c2nc3ccccc3cc2O)CNC(=O)[C@@H]1C(C)C` [Compound 147, N,N′-((7R,11S,19aS,26R,30S,38aS)-12,31-diethyl-11,30-diisopropyl-15,34-dimethyl-6,10,13,16,19,25,29,32,35,38-decaoxohexatriacontahydro-2H,6H-dipyrido[1,2-a:1′,2′-q][1,4,7,10,13,17,20,23,26,29]decaazacyclodotriacontine-7,26-diyl)bis(3-hydroxyquinoline-2-carboxamide)]: the “pIC50 (average)” value in data set [1] worked out at 8.5. In data set [2], the “HPLC” value is 17.9 min.
Regarding `CN1CC(=O)N2CCCCC[C@H]2C(=O)NC[C@@H](NC(=O)c2nc3ccccc3cc2O)C(=O)N2CCCC[C@H]2C(=O)NCC(=O)N(C)CC(=O)N2CCCCC[C@H]2C(=O)NC[C@@H](NC(=O)c2nc3ccccc3cc2O)C(=O)N2CCCC[C@H]2C(=O)NCC1=O` [Compound 157, N,N′-((7R,10aS,23aS,30R,33aS,46aS)-19,42-dimethyl-6,10,17,20,23,29,33,40,43,46-decaoxotetratetracontahydro-6H,29H-bis(azepino) [1,2-j:1′,2′-z]dipyrido[1,2-a:1′,2′-q][1,4,7,10,13,17,20,23,26,29]decaazacyclodotriacontine-7,30-diyl)bis(3-hydroxyquinoline-2-carboxamide)], the “pIC50 (average)” value in data set [1] is listed as 7.1. For the same molecule, in data set [2], the “HPLC” value worked out at 15.8 min.
On to `CN1CC(=O)N(C)[C@@H](C2CCCCC2)C(=O)NC[C@@H](NC(=O)c2nc3ccccc3cc2O)C(=O)N2CCCC[C@H]2C(=O)NCC(=O)N(C)CC(=O)N(C)[C@@H](C2CCCCC2)C(=O)NC[C@@H](NC(=O)c2nc3ccccc3cc2O)C(=O)N2CCCC[C@H]2C(=O)NCC1=O` [Compound 162, N,N′-((7R,11S,19aS,26R,30S,38aS)-11,30-dicyclohexyl-12,15,31,34-tetramethyl-6,10,13,16,19,25,29,32,35,38-decaoxohexatriacontahydro-2H,6H-dipyrido[1,2-a:1′,2′-q][1,4,7,10,13,17,20,23,26,29]decaazacyclodotriacontine-7,26-diyl)bis(3-hydroxyquinoline-2-carboxamide)], for which the “pIC50 (average)” value in data set [1] came out at 9.1. The “HPLC” value in data set [2] amounted to 20.7 min.
Take `CC[C@H](C)[C@H]1COC[C@@H](NC(=O)c2nc3ccccc3cc2O)C(=O)N2CCCC[C@H]2C(=O)NCC(=O)N(C)CC(=O)N(C)[C@@H](C(C)C)C(=O)NC[C@@H](NC(=O)c2nc3ccccc3cc2O)C(=O)N2CCCC[C@H]2C(=O)NCC(=O)N(C)CC(=O)N1C` [Compound 197, N,N′-((7R,11S,19aS,26R,30S,38aS)-11-((S)-sec-butyl)-30-isopropyl-12,15,31,34-tetramethyl-6,13,16,19,25,29,32,35,38-nonaoxotetratriacontahydro-2H,6H,10H-dipyrido[2,1-b1: 2′,1′-l][1]oxa[4,7,10,13,17,20,23,26,29]nonaazacyclodotriacontine-7,26-diyl)bis(3-hydroxyquinoline-2-carboxamide)]: the “pIC50 (average)” value in data set [1] is given as 9.4. In data set [2], the “HPLC” value is reported as 19.4 min.
